Data reported in patent US12435079B2, “Bruton's tyrosine kinase inhibitors” (priority 2019, dated 2025).
pIC50: −log10 of the molar value.

Molecular target: T1, BTK (Homo sapiens, UniProt Q06187)
T1 construct: purchased Promega V2941
Test: BTK Kinase Assay (ADP-Glo)
Format: biochemical
Settings: BTK enzyme, 50 μM ATP, one hour incubation, ADP-Glo luminescence; read-out: BTK Inhibition
Procedure: The BTK assay is performed using the BTK Kinase Enzyme System (Promega; Catalog #: V2941) and ADP-Glo™ Kinase Assay kit (Promega; Catalog #: V9101). Measurement were performed in a reaction volume of 5 μL using 384-well assay plate (Corning; Catalog #: 3570). 6 ng BTK enzyme, inhibitor or 1% DMSO, 1 μg Poly(Glu4, Tyr1) peptide, and 50 μM ATP were incubated in a reaction buffer composed of 40 mM Tris-Cl (pH7.5), 20 mM MgCl2, 0.1 mg/mL BSA, 50 μM DTT and 2 mM MnCl2 for one hour. ADP was detected as described in ADP-Glo™ Kinase Assay kit using 5 μl of ADP-Glo™ Reagent and 10 μl of Kinase Detection Reagent. Luminescence was recorded using a multimode plate reader (EnVision® Multilabel Reader, Perkin Elmer). There is a linear relationship between the luminescent signal and the amount of ADP in the reaction buffer. For each compound, enzyme activity was measured at various concentrations of compound, Negative control reactions were performed in the absence of inhibitor in three replicates and six no enzyme controls were used to determine baseline luminescence levels. Dose response curve were generated to determine the concentration required for IC50 of BTK activity.
The compound numbers correspond to the compound numbers in previous Tables. Compounds having an activity designated as “A” provided an IC 50≤10 nM; Compounds having an activity designated as “B” provided an IC50 10-100 nM; Compounds having an activity designated as “C” provided an IC50 100-1000 nM; Compounds having an activity designated as “D” provided an IC50 1000-10000 nM; Compounds having an activity designated as “E” provided an IC50≥10000 nM.

T1 sequence (Q06187 whole entry): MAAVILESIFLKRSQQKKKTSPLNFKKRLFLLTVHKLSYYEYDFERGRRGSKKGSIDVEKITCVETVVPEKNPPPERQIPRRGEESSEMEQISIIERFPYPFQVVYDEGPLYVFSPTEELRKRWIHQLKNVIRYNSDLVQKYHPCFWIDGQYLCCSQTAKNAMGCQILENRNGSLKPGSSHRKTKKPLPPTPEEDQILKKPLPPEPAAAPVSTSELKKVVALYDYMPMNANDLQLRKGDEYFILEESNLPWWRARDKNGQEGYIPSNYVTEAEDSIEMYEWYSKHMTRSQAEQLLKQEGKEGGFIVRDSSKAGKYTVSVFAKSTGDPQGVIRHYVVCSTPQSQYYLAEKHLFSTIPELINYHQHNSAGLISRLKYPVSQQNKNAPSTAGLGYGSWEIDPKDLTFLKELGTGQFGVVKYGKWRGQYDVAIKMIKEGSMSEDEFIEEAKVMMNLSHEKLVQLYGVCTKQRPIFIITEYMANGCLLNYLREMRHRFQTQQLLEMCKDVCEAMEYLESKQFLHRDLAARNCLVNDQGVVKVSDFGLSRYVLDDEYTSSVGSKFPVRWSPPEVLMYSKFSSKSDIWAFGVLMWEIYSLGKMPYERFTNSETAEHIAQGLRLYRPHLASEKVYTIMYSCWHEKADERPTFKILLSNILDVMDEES

SMILES	pIC50
COc1cccc(Oc2ccc(-c3nc([C@@H]4CCC[C@@H](O)C4)n4ccnc(N)c34)cc2)c1F [Compound 4]	≥ 8.00
Nc1nccn2c(C3CCCC(O)C3)nc(-c3ccc(Oc4ccccc4)cc3)c12 (stereo not drawn) [Compound 1, 3-[8-Amino-1-(4-phenoxy-phenyl)-imidazo[1,5-a]pyrazin-3-yl]-cyclohexanol]	≥ 8.00
Nc1nccn2c1c(-c1ccc(Oc3ccccc3)cc1)nc2[C@H]1CC[C@H](O)CC1 [Compound 5, 4-[8-Amino-1-(4-phenoxy-phenyl)-imidazo[1,5-a]pyrazin-3-yl]-cyclohexanol]	≥ 8.00
COc1cccc(Oc2ccc(-c3nc(C4CCC(O)CC4)n4ccnc(N)c34)cc2)c1F (stereo not drawn) [Compound 2, 4-{8-Amino-1-[4-(2-fluoro-3-methoxy-phenoxy)-phenyl]-imidazo[1,5-a]pyrazin-3-yl}-cyclohexanol]	≥ 8.00

The next lines start with the values.

pIC50	SMILES
≥ 8.00	Cc1cccc(Oc2ccc(-c3nc(C4CCC(O)CC4)n4ccnc(N)c34)cc2)c1 (stereo not drawn) [Compound 8, 4-[8-Amino-1-(4-m-tolyloxy-phenyl)-imidazo[1,5-a]pyrazin-3-yl]-cyclohexanol]
≥ 8.00	COc1ccccc1C(=O)NCc1ccc(-c2nc(C3CCC(O)CC3)n3ccnc(N)c23)cc1 (stereo not drawn) [Compound 11]
7.00 to 8.00	COc1cccc(Oc2ccc(-c3nc(C4CCC(O)CC4)n4ccnc(N)c34)cc2)c1C (stereo not drawn) [Compound 9, 4-{8-Amino-1-[4-(3-methoxy-2-methyl-phenoxy)-phenyl]-imidazo[1,5-a]pyrazin-3-yl}-cyclohexanol]
7.00 to 8.00	Nc1nccn2c(C3CCC(O)CC3)nc(-c3ccc(Oc4cccc(Cl)c4)cc3)c12 (stereo not drawn) [Compound 7]
≥ 8.00	Nc1nccn2c(C3CCC(O)CC3)nc(-c3ccc(Oc4cccc(Cl)c4F)cc3)c12 (stereo not drawn) [Compound 6, 4-{8-Amino-1-[4-(3-chloro-2-fluoro-phenoxy)-phenyl]-imidazo[1,5-a]pyrazin-3-yl}-cyclohexanol]
